Literature values in patent publication US12691080B2, “Fenretinide formulations, systems incorporating same, and methods for their use” (ARx, LLC, priority 2024, dated 2026).
In brackets after ≈: the same amount, converted by molar mass.

Tests used:
[1] = pH 6.5

CC1=C(/C=C/C(C)=C/C=C/C(C)=C/C(=O)Nc2ccc(O)cc2)C(C)(C)CCC1 [fenretinide, N-(4-hydroxyphenyl)retinamide]
solubility in water [1]: 0.013 µM (≈ 5.09 ng/mL) | epithelial proliferation (Ki-67 indices) (oral epithelium; epithelium with higher fenretinide levels (>5 μM)): significantly reduced | transglutaminase 1 levels (oral epithelium; fenretinide levels lower than 5 μM): increased levels | Phase II enzyme UGT1A1 (oral epithelium; lower fenretinide levels): increase | systemically detectable drug (oral epithelium; oral mucosal patch delivery): absence of any systemically detectable drug
